Measurements: ChEMBL document CHEMBL3132815, “Design, synthesis and activities of 4/5-acyl-2-aminoimidazolyl analogues of oroidin for biofilm inhibition” (Medchemcomm, 2013)
In brackets after ≈: the same amount, converted by molar mass.

Legend:
Pseudomonas aeruginosa [1] = test: Antibiofilm activity against Pseudomonas aeruginosa PAO1 assessed as inhibition of biofilm formation at 50 ug/ml; assay type: functional
Staphylococcus aureus [2] = test: Antibacterial activity against Staphylococcus aureus ATCC 35556 assessed as planktonic growth at 50 ug/ml; assay type: organism-based
Staphylococcus aureus [3] = test: Antibacterial activity against Staphylococcus aureus ATCC 35556 assessed as planktonic growth; assay type: organism-based
Pseudomonas aeruginosa [4] = test: Antibacterial activity against Pseudomonas aeruginosa PAO1 assessed as planktonic growth at 50 ug/ml; assay type: organism-based
Pseudomonas aeruginosa [5] = test: Antibiofilm activity against Pseudomonas aeruginosa PAO1 assessed as inhibition of biofilm formation; assay type: functional, organism-based
[6] = system: Staphylococcus epidermidis; test: Antibiofilm activity against Staphylococcus epidermidis GTC 18972 assessed as inhibition of biofilm formation; assay type: functional
[7] = system: Staphylococcus epidermidis; test: Antibacterial activity against Staphylococcus epidermidis 1457 assessed as planktonic growth; assay type: organism-based
[8] = system: Staphylococcus epidermidis; test: Antibacterial activity against Staphylococcus epidermidis GTC 18972 assessed as planktonic growth; assay type: organism-based
[9] = system: Staphylococcus epidermidis; test: Antibiofilm activity against Staphylococcus epidermidis 1457 assessed as inhibition of biofilm formation at 50 ug/ml; assay type: functional
[10] = system: Staphylococcus epidermidis; test: Antibiofilm activity against Staphylococcus epidermidis 1457 assessed as inhibition of biofilm formation; assay type: functional
[11] = system: Staphylococcus epidermidis; test: Antibiofilm activity against Staphylococcus epidermidis GTC 18972 assessed as inhibition of biofilm formation at 50 ug/ml; assay type: functional
Staphylococcus aureus [12] = test: Antibiofilm activity against methicillin-resistant Staphylococcus aureus 1094 assessed as inhibition of biofilm formation at 50 ug/ml; assay type: functional
Staphylococcus aureus [13] = test: Antibacterial activity against methicillin-resistant Staphylococcus aureus 1094 assessed as planktonic growth at 50 ug/ml; assay type: organism-based
Staphylococcus aureus [14] = test: Antibacterial activity against methicillin-resistant Staphylococcus aureus assessed as planktonic growth at 50 ug/ml; assay type: organism-based; details: in vitro
Pseudomonas aeruginosa [15] = test: Antibacterial activity against Pseudomonas aeruginosa PAO1 assessed as planktonic growth; assay type: organism-based
Staphylococcus aureus [16] = test: Antibiofilm activity against Staphylococcus aureus ATCC 35556 assessed as inhibition of biofilm formation at 50 ug/ml; assay type: functional
Staphylococcus aureus [17] = test: Antibiofilm activity against methicillin-resistant Staphylococcus aureus assessed as inhibition of biofilm formation at 50 ug/ml; assay type: functional
[18] = Cytotoxicity against human HeLa cells; assay type: cell-based
[19] = system: Staphylococcus epidermidis; test: Antibacterial activity against Staphylococcus epidermidis 1457 assessed as planktonic growth at 50 ug/ml; assay type: organism-based
Staphylococcus aureus [20] = test: Antibiofilm activity against Staphylococcus aureus ATCC 35556 assessed as inhibition of biofilm formation; assay type: functional
[21] = system: Staphylococcus epidermidis; test: Antibacterial activity against Staphylococcus epidermidis GTC 18972 assessed as planktonic growth at 50 ug/ml; assay type: organism-based
Staphylococcus aureus [22] = test: Antibiofilm activity against methicillin-resistant Staphylococcus aureus 1094 assessed as inhibition of biofilm formation; assay type: functional
Staphylococcus aureus [23] = test: Antibiofilm activity against Staphylococcus aureus assessed as inhibition of biofilm formation; assay type: functional, organism-based

SMILES	inhibition at 50 µg/mL (Pseudomonas aeruginosa [1])	Activity (Staphylococcus aureus [2])	MIC (Staphylococcus aureus [3])	Activity (Pseudomonas aeruginosa [4])	MBIC (Pseudomonas aeruginosa [5])	MBIC [6]	MIC [7]	MIC [8]	inhibition at 50 µg/mL [9]	MBIC [10]	inhibition at 50 µg/mL [11]	inhibition at 50 µg/mL (Staphylococcus aureus [12])	Activity (Staphylococcus aureus [13])	Activity (Staphylococcus aureus [14])	MIC (Pseudomonas aeruginosa [15])	inhibition at 50 µg/mL (Staphylococcus aureus [16])	inhibition at 50 µg/mL (Staphylococcus aureus [17])	CC50 [18]	Activity [19]	MBIC (Staphylococcus aureus [20])	also measured
Nc1ncc(C(=O)CCNC(=O)c2cc(Br)c[nH]2)[nH]1	29.6%	81.24%	50 µg/mL (≈ 153 µM)	32.69%	>=100 ug ml-1	25 µg/mL	50 µg/mL (≈ 153 µM)	25 µg/mL (≈ 76.7 µM)	98%	25 µg/mL	97.8%	85.5%	88.88%	88.41%	>= 100 ug ml-1	98%	88.8%	86.4 µg/mL (≈ 265 µM)	85.98%	50 µg/mL	Activity [21]: 86.77%
Nc1ncc(C(=O)CCNC(=O)c2ccc[nH]2)[nH]1	92%	79.94%	25 µg/mL (≈ 101 µM)	86.17%	50 µg/mL	6.25 µg/mL	12.5 µg/mL (≈ 50.6 µM)	12.5 µg/mL (≈ 50.6 µM)	98%	6.25 µg/mL	97.8%	86.2%	86.98%	85.37%	50 µg/mL (≈ 202 µM)	98.1%	88.4%	101 µg/mL (≈ 410 µM)	81.58%	6.25 µg/mL	MBIC (Staphylococcus aureus [22]): 12.5 µg/mL; Activity [21]: 81.99%
Nc1ncc(/C=C/CNC(=O)c2cc(Br)c(Br)[nH]2)[nH]1 [OROIDIN]																					IC50 (Staphylococcus aureus [23]): 166 µM
